Target: T1, PIK3C2B (PI3K-C2 beta) (Homo sapiens, UniProt O00750)
T1 construct: purchased Thermo Fisher Scientific (Life Technologies) SelectScreen
Test: SelectScreen Adapta
Assay type: biochemical
Details: ATP 10 µM
In short: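 SelectScreen broad panel; activity (Z'LYTE, Adapta) plus binding formats. ATP: Km app for CSF1R Z'LYTE; 10 for CAMK1 Adapta. Readout = % per kinase.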

T1 sequence (O00750 whole entry): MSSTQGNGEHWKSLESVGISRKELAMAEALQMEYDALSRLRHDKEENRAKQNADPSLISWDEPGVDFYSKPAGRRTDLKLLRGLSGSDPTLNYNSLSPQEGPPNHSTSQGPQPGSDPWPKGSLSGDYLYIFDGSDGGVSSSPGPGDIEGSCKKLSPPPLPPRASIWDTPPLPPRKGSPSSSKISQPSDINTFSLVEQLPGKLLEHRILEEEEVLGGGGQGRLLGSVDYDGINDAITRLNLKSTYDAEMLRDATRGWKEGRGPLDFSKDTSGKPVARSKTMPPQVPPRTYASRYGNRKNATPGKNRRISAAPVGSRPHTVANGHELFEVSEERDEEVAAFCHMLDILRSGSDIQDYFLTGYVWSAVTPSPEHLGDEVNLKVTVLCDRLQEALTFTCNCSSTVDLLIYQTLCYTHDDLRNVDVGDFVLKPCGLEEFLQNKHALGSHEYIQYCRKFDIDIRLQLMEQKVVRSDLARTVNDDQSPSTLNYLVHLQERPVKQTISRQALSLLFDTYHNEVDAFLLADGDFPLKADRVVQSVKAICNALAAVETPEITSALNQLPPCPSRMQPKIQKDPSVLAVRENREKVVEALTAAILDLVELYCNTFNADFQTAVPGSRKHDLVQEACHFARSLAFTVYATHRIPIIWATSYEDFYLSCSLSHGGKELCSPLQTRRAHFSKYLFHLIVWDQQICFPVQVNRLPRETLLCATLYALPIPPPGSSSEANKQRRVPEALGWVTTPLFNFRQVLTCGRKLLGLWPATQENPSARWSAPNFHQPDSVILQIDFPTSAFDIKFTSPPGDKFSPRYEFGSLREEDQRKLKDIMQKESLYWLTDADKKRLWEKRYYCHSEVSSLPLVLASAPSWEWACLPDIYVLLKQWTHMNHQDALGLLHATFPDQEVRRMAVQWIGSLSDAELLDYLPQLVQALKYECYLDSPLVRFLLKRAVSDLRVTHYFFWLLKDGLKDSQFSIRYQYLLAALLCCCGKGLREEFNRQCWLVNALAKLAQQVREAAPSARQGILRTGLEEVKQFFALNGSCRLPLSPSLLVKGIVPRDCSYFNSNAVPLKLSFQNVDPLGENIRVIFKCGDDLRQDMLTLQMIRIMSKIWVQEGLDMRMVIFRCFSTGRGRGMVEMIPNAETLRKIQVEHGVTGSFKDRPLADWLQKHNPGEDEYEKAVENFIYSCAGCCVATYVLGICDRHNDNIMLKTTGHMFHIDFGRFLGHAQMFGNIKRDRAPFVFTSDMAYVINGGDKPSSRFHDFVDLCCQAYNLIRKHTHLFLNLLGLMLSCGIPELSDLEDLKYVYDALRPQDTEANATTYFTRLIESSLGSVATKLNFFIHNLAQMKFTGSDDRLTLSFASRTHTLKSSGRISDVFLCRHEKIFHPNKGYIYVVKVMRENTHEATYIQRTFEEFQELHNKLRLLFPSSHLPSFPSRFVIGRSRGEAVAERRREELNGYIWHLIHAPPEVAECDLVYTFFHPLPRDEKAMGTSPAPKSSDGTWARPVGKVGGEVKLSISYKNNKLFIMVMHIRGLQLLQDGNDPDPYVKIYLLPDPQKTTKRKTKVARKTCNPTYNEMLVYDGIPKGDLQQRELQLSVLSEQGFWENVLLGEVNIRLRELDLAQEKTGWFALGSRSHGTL

CN(C(=O)CN1CCOCC1)c1ccc2sc3c(-c4cccc5c(=O)cc(N6CC7CCC(C6)O7)oc45)cccc3c2c1 [NU5455]
inhibition at 1 µM: 28.9%

Reference: PMC6934184, “Selective DNA-PKcs inhibition extends the therapeutic index of localized radiotherapy and chemotherapy” (The Journal of Clinical Investigation, 2019)
